# Experimental data as given in patent US5162304A, “Pharmaceutical compositions and methods for treatment and prophylaxis of cancer” (priority 1990, dated 1992).
# Tests used:
# [1] = test system: Ehrlich's mouse ascites carcinoma cells; experiment: Tests 4, 5 and Comparing Test 1: cytocidal activity of bleomycin alone or with isomonool, Ehrlich's cells; assay type: cell-based
# Method: (§1) The cytocidal activity (IC90) of bleomycin was evaluated when used alone or used in combination with 14-methyl-1-pentadecanol or 14-methyl-1-hexadecanol, using Ehrlich's mouse ascites carcinoma cells and human lung tumor A549 cells.
# [2] = test system: human lung carcinoma A549 cells; experiment: Tests 4, 5 and Comparing Test 1: cytocidal activity of bleomycin alone or with isomonool, A549 cells; assay type: cell-based
# Method: as §1
# [3] = test system: Ehrlich's mouse ascites carcinoma cells; experiment: Test 7 and Comparing Tests 3 and 4: survival of mice inoculated with Ehrlich's mouse ascites carcinoma cells; assay type: in vivo, male C57BL/6 mice; settings: bleomycin alone; for Number of surviving mice: of 8
# Method: 5-week old male C57BL/6 mice were intraperitoneally inoculated with 10^6 Ehrlich's mouse ascites carcinoma cells. Since 24 hours later, a 50 μg/ml solution of bleomycin in 0.25% HCO-60 solution in physiological saline, and a suspension containing 50 μg/ml of bleomycin and 5 μg/ml of 14-methyl-1-pentadecanol were intraperitoneally injected at a dose of 10 mg/kg·day and 11 mg/kg·day, respectively, to each 8 animals/group for 5 days. The survival time of the injected mice was then followed.
# [4] = test system: Ehrlich's ascites cells; experiment: Test 6 and Comparing Test 2: uptake of bleomycin into Ehrlich's ascites cells; assay type: cell-based, mouse; settings: bleomycin alone
substance,measurement,setting,value
bleomycin [reference compound],Cytocidal activity (IC90) of bleomycin alone,[1],20 µg/mL
same,Cytocidal activity (IC90) of bleomycin alone,[2],44 µg/mL
same,mean survival time after inoculation,"[3]; i.p., 10 mg/kg.day for 5 days (Comparing test 3)",33.3 days
same,Number of surviving mice,[3]; day 14,7
same,Number of surviving mice,[3]; day 15,6
same,Number of surviving mice,[3]; day 16,6
same,Number of surviving mice,[3]; day 17,6
same,Number of surviving mice,[3]; day 18,6
same,Number of surviving mice,[3]; day 19,6
same,Number of surviving mice,[3]; day 20,6
same,Number of surviving mice,[3]; day 23,4
same,Number of surviving mice,[3]; day 33,3
same,Number of surviving mice,[3]; day 41,2
same,Number of surviving mice,[3]; day 45,2
same,Number of surviving mice,[3]; day 52,2
same,Number of surviving mice,[3]; day 57,1
same,Number of surviving mice,[3]; day 60,1
same,Bleomycin uptake,[4]; 30 min,0.03 μg/mg Ehrlich's cell
same,Bleomycin uptake,[4]; 60 min,0.06 μg/mg Ehrlich's cell
same,Bleomycin uptake,[4]; 120 min,0.12 μg/mg Ehrlich's cell
same,Bleomycin uptake,[4]; 180 min,0.13 μg/mg Ehrlich's cell
same,Bleomycin uptake,[4]; Initial,0 μg/mg Ehrlich's cell
